Measurements: PubChem BioAssay (NCI)
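Following 48 hours of exposure in 96-well plates, responses at five concentrations were used to interpolate endpoints linearly. Abbreviation: GI50, concentration required for 50% inhibition of growth. TGI: concentration producing complete growth inhibition.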

Legend:
Experiment in all cases: NCI-60 cell line screen, 48 h
NCI-H226 lung = tested on: NCI-H226 lung
NCI-H23 lung = tested on: NCI-H23 lung
NCI-H460 lung = tested on: NCI-H460 lung
NCI-H522 lung = tested on: NCI-H522 lung
OVCAR-3 ovarian = tested on: OVCAR-3 ovarian
OVCAR-4 ovarian = tested on: OVCAR-4 ovarian
OVCAR-5 ovarian = tested on: OVCAR-5 ovarian
OVCAR-8 ovarian = tested on: OVCAR-8 ovarian
PC-3 prostate = tested on: PC-3 prostate
RXF 393 renal = tested on: RXF 393 renal
SF-268 CNS = tested on: SF-268 CNS
SF-295 CNS = tested on: SF-295 CNS
SF-539 CNS = tested on: SF-539 CNS
SK-MEL-2 melanoma = tested on: SK-MEL-2 melanoma
SK-MEL-28 melanoma = tested on: SK-MEL-28 melanoma
SK-MEL-5 melanoma = tested on: SK-MEL-5 melanoma
SK-OV-3 ovarian = tested on: SK-OV-3 ovarian
SN12C renal = tested on: SN12C renal
SNB-19 CNS = tested on: SNB-19 CNS
SNB-75 CNS = tested on: SNB-75 CNS
SR leukemia = tested on: SR leukemia
SW-620 colon = tested on: SW-620 colon
T-47D breast = tested on: T-47D breast
TK-10 renal = tested on: TK-10 renal
U251 CNS = tested on: U251 CNS
UACC-257 melanoma = tested on: UACC-257 melanoma
UACC-62 melanoma = tested on: UACC-62 melanoma
UO-31 renal = tested on: UO-31 renal

How did the GI50 (NCI-H226 lung) turn out when `O=C(/C=C/c1ccccc1)c1nc2ccccc2n1Cc1ccc(Br)cc1` was run?
The GI50 was 3.8 µM.

And the TGI (NCI-H226 lung)?
The TGI was 15.9 µM.

And the GI50 (NCI-H23 lung)?
Its GI50 is 2.01 µM.

And the TGI (NCI-H23 lung)?
The TGI was 4.29 µM.

And the GI50 (NCI-H460 lung)?
Its GI50 is 1.8 µM.

What about the TGI (NCI-H460 lung) of the same compound?
The TGI was 3.64 µM.

What about the GI50 (NCI-H522 lung) of the same compound?
Its GI50 is 1.84 µM.

What about the TGI (NCI-H522 lung) of the same compound?
Its TGI is 4.04 µM.

What about the GI50 (OVCAR-3 ovarian) of the same compound?
Its GI50 is 2.28 µM.

And the TGI (OVCAR-3 ovarian)?
Its TGI is 5.56 µM.

What about the GI50 (OVCAR-4 ovarian) of the same compound?
Its GI50 is 8.7 µM.

And the TGI (OVCAR-4 ovarian)?
The TGI was 81.5 µM.

What about the GI50 (OVCAR-5 ovarian) of the same compound?
Its GI50 is 2.2 µM.

What about the TGI (OVCAR-5 ovarian) of the same compound?
The TGI was 4.54 µM.

What about the GI50 (OVCAR-8 ovarian) of the same compound?
The GI50 was 2.84 µM.

And the TGI (OVCAR-8 ovarian)?
Its TGI is 8.8 µM.

What about the GI50 (PC-3 prostate) of the same compound?
Its GI50 is 3.14 µM.

And the TGI (PC-3 prostate)?
The TGI was 9.31 µM.

What about the GI50 (RXF 393 renal) of the same compound?
The GI50 was 1.51 µM.

What about the TGI (RXF 393 renal) of the same compound?
Its TGI is 2.84 µM.

And the GI50 (SF-268 CNS)?
The GI50 was 6.92 µM.

What about the TGI (SF-268 CNS) of the same compound?
Its TGI is greater than 100 µM.

And the GI50 (SF-295 CNS)?
The GI50 was 2.22 µM.

And the TGI (SF-295 CNS)?
The TGI was 5.25 µM.

What about the GI50 (SF-539 CNS) of the same compound?
The GI50 was 1.86 µM.

What about the TGI (SF-539 CNS) of the same compound?
Its TGI is 3.54 µM.

And the GI50 (SK-MEL-2 melanoma)?
The GI50 was 2.23 µM.

And the TGI (SK-MEL-2 melanoma)?
The TGI was 5.08 µM.

What about the GI50 (SK-MEL-28 melanoma) of the same compound?
Its GI50 is 1.84 µM.

And the TGI (SK-MEL-28 melanoma)?
The TGI was 3.74 µM.

What about the GI50 (SK-MEL-5 melanoma) of the same compound?
The GI50 was 2.44 µM.

And the TGI (SK-MEL-5 melanoma)?
The TGI was 6.95 µM.

And the GI50 (SK-OV-3 ovarian)?
The GI50 was 13.2 µM.

What about the TGI (SK-OV-3 ovarian) of the same compound?
Its TGI is 57.6 µM.

And the GI50 (SN12C renal)?
The GI50 was 3.46 µM.

And the TGI (SN12C renal)?
Its TGI is 12.4 µM.

What about the GI50 (SNB-19 CNS) of the same compound?
The GI50 was 1.81 µM.

What about the TGI (SNB-19 CNS) of the same compound?
Its TGI is 3.64 µM.

And the GI50 (SNB-75 CNS)?
Its GI50 is 3.83 µM.

What about the TGI (SNB-75 CNS) of the same compound?
Its TGI is 22.1 µM.

And the GI50 (SR leukemia)?
Its GI50 is 1.97 µM.

What about the TGI (SR leukemia) of the same compound?
The TGI was 6.01 µM.

What about the GI50 (SW-620 colon) of the same compound?
Its GI50 is 2 µM.

What about the TGI (SW-620 colon) of the same compound?
Its TGI is 4.09 µM.

What about the GI50 (T-47D breast) of the same compound?
Its GI50 is 2.36 µM.

And the TGI (T-47D breast)?
Its TGI is 10.2 µM.

And the GI50 (TK-10 renal)?
The GI50 was 2.57 µM.

And the TGI (TK-10 renal)?
Its TGI is 7.63 µM.

What about the GI50 (U251 CNS) of the same compound?
The GI50 was 1.65 µM.

And the TGI (U251 CNS)?
The TGI was 3.2 µM.

And the GI50 (UACC-257 melanoma)?
Its GI50 is 3.12 µM.

And the TGI (UACC-257 melanoma)?
Its TGI is 11.9 µM.

And the GI50 (UACC-62 melanoma)?
The GI50 was 1.85 µM.

What about the TGI (UACC-62 melanoma) of the same compound?
Its TGI is 4.68 µM.

What about the GI50 (UO-31 renal) of the same compound?
The GI50 was 1.46 µM.

And the TGI (UO-31 renal)?
The TGI was 2.97 µM.
